Data taken from the supplement of paper PMC11665569.
± gives the standard deviation of the averaged measurements.

What was measured:
Conditions in all cases: treatment time: 5 days
[1] = system: MIAPACA2; assay: relative viability (fraction of vehicle control); higher = more viable / less inhibited
Protocol: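 CCK-8 viability of MIAPACA2 cells with empty vector or constitutively active YAP S127A, treated with KRAS G12C inhibitors for 5 days, normalised to vehicle control.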

[2] = system: SW1573
Protocol: (§1)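 CCK-8 viability of KRAS G12C-mutant cancer cell lines transfected with control, YAP/TAZ or TEAD1-4 siRNAs and treated with KRAS G12C inhibitors for 5 days; IC50 fitted in Prism after normalising absorbance at 450 nm to vehicle control.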

[3] = system: KYSE410
Protocol: as §1

[4] = system: MIAPACA2
Protocol: as §1

[5] = system: H358
Protocol: as §1

[6] = system: H1792
Protocol: as §1

[7] = system: H1373
Protocol: as §1

[8] = system: H2030
Protocol: as §1

[9] = system: H2030; assay: relative viability (fraction of vehicle control); higher = more viable / less inhibited
Protocol: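 CCK-8 viability of H2030 cells transfected with control, YAP/TAZ or TEAD1-4 siRNAs and treated with KRAS G12C inhibitors for 5 days. Values are normalised to vehicle control.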

[10] = system: H358; assay: as above
Protocol: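 CCK-8 viability of H358 cells with empty vector or constitutively active YAP S127A, treated with KRAS G12C inhibitors for 5 days. Absorbance at 450 nm normalised to vehicle control.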

C=C(F)C(=O)N1CCN(c2nc(OC[C@@H]3CCCN3C)nc3c2CCN(c2cccc4cccc(Cl)c24)C3)C[C@@H]1CC#N [MRTX849]
Conditions	IC50 (cell viability, 5 days) [nM]	relative viability
[1], log10 concentration (uM): 0, ectopic expression: YAP S127A	–	0.696 ± 0.059
[1], log10 concentration (uM): 0, ectopic expression: empty vector (YAP experiment)	–	0.0786 ± 0.0051
[1], log10 concentration (uM): 0.69897, ectopic expression: YAP S127A	–	0.15 ± 0.012
[1], log10 concentration (uM): 0.69897, ectopic expression: empty vector (YAP experiment)	–	0.0127 ± 0.0017
[1], log10 concentration (uM): -0.30103, ectopic expression: YAP S127A	–	0.687 ± 0.029
[1], log10 concentration (uM): -0.30103, ectopic expression: empty vector (YAP experiment)	–	0.0877 ± 0.0072
[1], log10 concentration (uM): -1, ectopic expression: YAP S127A	–	0.902 ± 0.033
[1], log10 concentration (uM): -1, ectopic expression: empty vector (YAP experiment)	–	0.217 ± 0.03
[1], log10 concentration (uM): -1.30103, ectopic expression: YAP S127A	–	0.924 ± 0.039
[1], log10 concentration (uM): -1.30103, ectopic expression: empty vector (YAP experiment)	–	0.309 ± 0.055
[1], log10 concentration (uM): -2, ectopic expression: YAP S127A	–	0.979 ± 0.082
[1], log10 concentration (uM): -2, ectopic expression: empty vector (YAP experiment)	–	0.917 ± 0.12
[1], log10 concentration (uM): -2.30103, ectopic expression: YAP S127A	–	1.01 ± 0.032
[1], log10 concentration (uM): -2.30103, ectopic expression: empty vector (YAP experiment)	–	0.986 ± 0.038
[1], log10 concentration (uM): -3, ectopic expression: YAP S127A	–	1.06 ± 0.044
[1], log10 concentration (uM): -3, ectopic expression: empty vector (YAP experiment)	–	0.964 ± 0.057
[1], log10 concentration (uM): -4, ectopic expression: YAP S127A	–	0.993 ± 0.054
[1], log10 concentration (uM): -4, ectopic expression: empty vector (YAP experiment)	–	0.997 ± 0.043
[2], siRNA knockdown (Con = control): Con	926	–
[2], siRNA knockdown (Con = control): TEAD1234_si1	7.3	–
[2], siRNA knockdown (Con = control): TEAD1234_si2	4.3	–
[3], siRNA knockdown (Con = control): Con	1260	–
[3], siRNA knockdown (Con = control): TEAD1234_si1	415	–
[3], siRNA knockdown (Con = control): TEAD1234_si2	83.3	–
[3], siRNA knockdown (Con = control): YAP_WWTR1_si1	80	–
[3], siRNA knockdown (Con = control): YAP_WWTR1_si2	27.2	–
[4], siRNA knockdown (Con = control): Con	115	–
[4], siRNA knockdown (Con = control): TEAD1234_si1	52.6	–
[4], siRNA knockdown (Con = control): TEAD1234_si2	49.4	–
[4], siRNA knockdown (Con = control): YAP_WWTR1_si1	34.4	–
[4], siRNA knockdown (Con = control): YAP_WWTR1_si2	60.6	–
[5], siRNA knockdown (Con = control): Con	9.45	–
[5], siRNA knockdown (Con = control): TEAD1234_si1	5.61	–
[5], siRNA knockdown (Con = control): TEAD1234_si2	3.74	–
[5], siRNA knockdown (Con = control): YAP_WWTR1_si1	5.52	–
[5], siRNA knockdown (Con = control): YAP_WWTR1_si2	5.33	–
[6], siRNA knockdown (Con = control): Con	304	–
[6], siRNA knockdown (Con = control): YAP_WWTR1_si1	55	–
[6], siRNA knockdown (Con = control): YAP_WWTR1_si2	45.6	–
[7], siRNA knockdown (Con = control): Con	82.1	–
[7], siRNA knockdown (Con = control): YAP_WWTR1_si1	19.3	–
[7], siRNA knockdown (Con = control): YAP_WWTR1_si2	11.4	–
[8], siRNA knockdown (Con = control): Con	1500	–
[8], siRNA knockdown (Con = control): TEAD1234_si2	28	–
[9], log10 concentration (uM): 0, siRNA knockdown: TEAD1-4 siRNA 1	–	0.333 ± 0.042
[9], log10 concentration (uM): 0, siRNA knockdown: TEAD1-4 siRNA 2	–	0.289 ± 0.033
[9], log10 concentration (uM): 0, siRNA knockdown: YAP/TAZ siRNA 1	–	0.531 ± 0.042
[9], log10 concentration (uM): 0, siRNA knockdown: YAP/TAZ siRNA 2	–	0.441 ± 0.099
[9], log10 concentration (uM): 0, siRNA knockdown: negative control siRNA	–	0.768 ± 0.29
[9], log10 concentration (uM): 0.69897, siRNA knockdown: TEAD1-4 siRNA 1	–	0.0176 ± 0.0044
[9], log10 concentration (uM): 0.69897, siRNA knockdown: TEAD1-4 siRNA 2	–	0.0364
[9], log10 concentration (uM): 0.69897, siRNA knockdown: YAP/TAZ siRNA 1	–	0.0187 ± 0.0039
[9], log10 concentration (uM): 0.69897, siRNA knockdown: YAP/TAZ siRNA 2	–	0.0145 ± 0.0049
[9], log10 concentration (uM): 0.69897, siRNA knockdown: negative control siRNA	–	0.162 ± 0.12
[9], log10 concentration (uM): -0.30103, siRNA knockdown: TEAD1-4 siRNA 1	–	0.413 ± 0.04
[9], log10 concentration (uM): -0.30103, siRNA knockdown: TEAD1-4 siRNA 2	–	0.358 ± 0.016
[9], log10 concentration (uM): -0.30103, siRNA knockdown: YAP/TAZ siRNA 1	–	0.458 ± 0.14
[9], log10 concentration (uM): -0.30103, siRNA knockdown: YAP/TAZ siRNA 2	–	0.496 ± 0.066
[9], log10 concentration (uM): -0.30103, siRNA knockdown: negative control siRNA	–	0.814 ± 0.24
[9], log10 concentration (uM): -1, siRNA knockdown: TEAD1-4 siRNA 1	–	0.468 ± 0.053
[9], log10 concentration (uM): -1, siRNA knockdown: TEAD1-4 siRNA 2	–	0.437 ± 0.055
[9], log10 concentration (uM): -1, siRNA knockdown: YAP/TAZ siRNA 1	–	0.409 ± 0.25
[9], log10 concentration (uM): -1, siRNA knockdown: YAP/TAZ siRNA 2	–	0.238 ± 0.3
[9], log10 concentration (uM): -1, siRNA knockdown: negative control siRNA	–	0.814 ± 0.23
[9], log10 concentration (uM): -1.30103, siRNA knockdown: TEAD1-4 siRNA 1	–	0.473 ± 0.06
[9], log10 concentration (uM): -1.30103, siRNA knockdown: TEAD1-4 siRNA 2	–	0.428 ± 0.039
[9], log10 concentration (uM): -1.30103, siRNA knockdown: YAP/TAZ siRNA 1	–	0.625 ± 0.072
[9], log10 concentration (uM): -1.30103, siRNA knockdown: YAP/TAZ siRNA 2	–	0.322 ± 0.18
[9], log10 concentration (uM): -1.30103, siRNA knockdown: negative control siRNA	–	0.795 ± 0.24
[9], log10 concentration (uM): -2, siRNA knockdown: TEAD1-4 siRNA 1	–	0.676 ± 0.085
[9], log10 concentration (uM): -2, siRNA knockdown: TEAD1-4 siRNA 2	–	0.707 ± 0.1
[9], log10 concentration (uM): -2, siRNA knockdown: YAP/TAZ siRNA 1	–	0.901 ± 0.071
[9], log10 concentration (uM): -2, siRNA knockdown: YAP/TAZ siRNA 2	–	0.521 ± 0.31
[9], log10 concentration (uM): -2, siRNA knockdown: negative control siRNA	–	0.836 ± 0.2
[9], log10 concentration (uM): -2.30103, siRNA knockdown: TEAD1-4 siRNA 1	–	0.774 ± 0.058
[9], log10 concentration (uM): -2.30103, siRNA knockdown: TEAD1-4 siRNA 2	–	0.625 ± 0.058
[9], log10 concentration (uM): -2.30103, siRNA knockdown: YAP/TAZ siRNA 1	–	0.958 ± 0.073
[9], log10 concentration (uM): -2.30103, siRNA knockdown: YAP/TAZ siRNA 2	–	0.707 ± 0.14
[9], log10 concentration (uM): -2.30103, siRNA knockdown: negative control siRNA	–	0.836 ± 0.19
[9], log10 concentration (uM): -3, siRNA knockdown: TEAD1-4 siRNA 1	–	1.02 ± 0.028
[9], log10 concentration (uM): -3, siRNA knockdown: TEAD1-4 siRNA 2	–	0.844 ± 0.084
[9], log10 concentration (uM): -3, siRNA knockdown: YAP/TAZ siRNA 1	–	1.07 ± 0.071
[9], log10 concentration (uM): -3, siRNA knockdown: YAP/TAZ siRNA 2	–	0.756 ± 0.18
[9], log10 concentration (uM): -3, siRNA knockdown: negative control siRNA	–	0.909 ± 0.11
[9], log10 concentration (uM): -4, siRNA knockdown: TEAD1-4 siRNA 1	–	1.14 ± 0.055
[9], log10 concentration (uM): -4, siRNA knockdown: TEAD1-4 siRNA 2	–	0.984 ± 0.074
[9], log10 concentration (uM): -4, siRNA knockdown: YAP/TAZ siRNA 1	–	1.17 ± 0.027
[9], log10 concentration (uM): -4, siRNA knockdown: YAP/TAZ siRNA 2	–	0.911 ± 0.17
[9], log10 concentration (uM): -4, siRNA knockdown: negative control siRNA	–	0.97 ± 0.048
[10], log10 concentration (uM): 0, ectopic expression: YAP S127A	–	0.6 ± 0.033
[10], log10 concentration (uM): 0, ectopic expression: empty vector (YAP experiment)	–	0.139 ± 0.025
[10], log10 concentration (uM): 0.69897, ectopic expression: YAP S127A	–	0.144 ± 0.069
[10], log10 concentration (uM): 0.69897, ectopic expression: empty vector (YAP experiment)	–	0.0333 ± 0.033
[10], log10 concentration (uM): -0.30103, ectopic expression: YAP S127A	–	0.811 ± 0.22
[10], log10 concentration (uM): -0.30103, ectopic expression: empty vector (YAP experiment)	–	0.217 ± 0.076
[10], log10 concentration (uM): -1, ectopic expression: YAP S127A	–	0.733 ± 0.13
[10], log10 concentration (uM): -1, ectopic expression: empty vector (YAP experiment)	–	0.328 ± 0.1
[10], log10 concentration (uM): -1.30103, ectopic expression: YAP S127A	–	0.811 ± 0.069
[10], log10 concentration (uM): -1.30103, ectopic expression: empty vector (YAP experiment)	–	0.361 ± 0.0096
[10], log10 concentration (uM): -2, ectopic expression: YAP S127A	–	1.02 ± 0.16
[10], log10 concentration (uM): -2, ectopic expression: empty vector (YAP experiment)	–	0.678 ± 0.098
[10], log10 concentration (uM): -2.30103, ectopic expression: YAP S127A	–	1.1 ± 0.14
[10], log10 concentration (uM): -2.30103, ectopic expression: empty vector (YAP experiment)	–	0.783 ± 0.044
[10], log10 concentration (uM): -3, ectopic expression: YAP S127A	–	1.27 ± 0.033
[10], log10 concentration (uM): -3, ectopic expression: empty vector (YAP experiment)	–	0.828 ± 0.035
[10], log10 concentration (uM): -4, ectopic expression: YAP S127A	–	1.12 ± 0.038
[10], log10 concentration (uM): -4, ectopic expression: empty vector (YAP experiment)	–	0.778 ± 0.035
